According to ChEMBL document CHEMBL5034013, “Discovery of VNRX-7145 (VNRX-5236 Etzadroxil): An Orally Bioavailable β-Lactamase Inhibitor for Enterobacterales Expressing Ambler Class A, C, and D Enzymes” (J Med Chem, 2021):

Assays:
[1] = Metabolic stability in Cynomolgus monkey intestinal S9 fraction assessed as half life at 3 uM measured after 2 hrs in absence of NADPH by UPLC-MS/MS analysis; format: ADME, subcellular, Macaca fascicularis, Intestine; details: s9, 2 h
[2] = Apparent permeability across apical to basolateral side in human Caco-2 cells at 5 uM measured after 2 hrs by LC-MS/MS method; format: ADME, cell-based; details: caco-2, 2 h
[3] = Drug metabolism in Cynomolgus monkey hepatocytes assessed as (R)-2-hydroxy-3-propionamido-3,4-dihydro-2H-benzo[e][1,2]oxaborinine-8-carboxylic acid formation at 2 to 20 uM incubated for 240 mins by UPLC-HR-MS/MS analysis; format: ADME, cell-based, Macaca fascicularis, Hepatocyte; details: 4 h, dose 2-20 µM
[4] = Metabolic stability in human plasma assessed as half life at 3 uM measured after 2 hrs by UPLC-MS/MS analysis; format: ADME, cell-free
[5] = Metabolic stability in Sprague-Dawley rat plasma assessed as half life at 3 uM measured after 2 hrs by UPLC-MS/MS analysis; format: ADME, cell-free
[6] = Efflux ratio of apparent permeability from basolateral to apical side over apical to basolateral side in human Caco-2 cells at 5 uM measured after 2 hrs by LC-MS/MS method; format: ADME, cell-based; details: caco-2, 2 h
[7] = Metabolic stability in Sprague-Dawley rat liver S9 fraction assessed as half life at 3 uM measured after 2 hrs in absence of NADPH by UPLC-MS/MS analysis; format: ADME, subcellular; details: s9, 2 h
[8] = Metabolic stability in Beagle dog liver S9 fraction assessed as half life at 3 uM measured after 2 hrs in presence of NADPH by UPLC-MS/MS analysis; format: ADME, subcellular, Canis lupus familiaris; details: s9, 2 h
[9] = Metabolic stability in Cynomolgus monkey liver S9 fraction assessed as half life at 3 uM measured after 2 hrs in absence of NADPH by UPLC-MS/MS analysis; format: ADME, subcellular, Macaca fascicularis; details: s9, 2 h
[10] = Metabolic stability in human intestinal S9 fraction assessed as half life at 3 uM measured after 2 hrs in absence of NADPH by UPLC-MS/MS analysis; format: ADME, subcellular, Intestine; details: s9, 2 h
[11] = Metabolic stability in human intestinal S9 fraction assessed as half life at 3 uM measured after 2 hrs in presence of NADPH by UPLC-MS/MS analysis; format: ADME, subcellular, Intestine; details: s9, 2 h
[12] = Metabolic stability in Beagle dog intestinal S9 fraction assessed as half life at 3 uM measured after 2 hrs in absence of NADPH by UPLC-MS/MS analysis; format: ADME, subcellular, Canis lupus familiaris, Intestine; details: s9, 2 h
[13] = Metabolic stability in Sprague-Dawley rat intestinal S9 fraction assessed as half life at 3 uM measured after 2 hrs in absence of NADPH by UPLC-MS/MS analysis; format: ADME, subcellular, Intestine; details: s9, 2 h
[14] = Metabolic stability in CD-1 mouse liver S9 fraction assessed as half life measured at 3 uM after 2 hrs in absence of NADPH by UPLC-MS/MS analysis; format: ADME, subcellular; details: s9, 2 h
[15] = Drug metabolism in Beagle dog hepatocytes assessed as (R)-2-hydroxy-3-propionamido-3,4-dihydro-2H-benzo[e][1,2]oxaborinine-8-carboxylic acid formation at 2 to 20 uM incubated for 240 mins by UPLC-HR-MS/MS analysis; format: ADME, cell-based, Canis lupus familiaris, Hepatocyte; details: 4 h, dose 2-20 µM
[16] = Drug metabolism in mouse hepatocytes assessed as (R)-2-hydroxy-3-propionamido-3,4-dihydro-2H-benzo[e][1,2]oxaborinine-8-carboxylic acid formation at 2 to 20 uM incubated for 240 mins by UPLC-HR-MS/MS analysis; format: ADME, cell-based, Hepatocyte; details: 4 h, dose 2-20 µM
[17] = Metabolic stability in CD-1 mouse liver S9 fraction assessed as half life measured at 3 uM after 2 hrs in presence of NADPH by UPLC-MS/MS analysis; format: ADME, subcellular; details: s9, 2 h
[18] = Drug metabolism in rabbit hepatocytes assessed as (R)-2-hydroxy-3-propionamido-3,4-dihydro-2H-benzo[e][1,2]oxaborinine-8-carboxylic acid formation at 2 to 20 uM incubated for 240 mins by UPLC-HR-MS/MS analysis; format: ADME, cell-based, Oryctolagus cuniculus, Hepatocyte; details: 4 h, dose 2-20 µM
[19] = Apparent permeability across basolateral to apical side in human Caco-2 cells at 5 uM measured after 2 hrs by LC-MS/MS method; format: ADME, cell-based; details: caco-2, 2 h
[20] = Metabolic stability in Sprague-Dawley rat intestinal S9 fraction assessed as half life at 3 uM measured after 2 hrs in presence of NADPH by UPLC-MS/MS analysis; format: ADME, subcellular, Intestine; details: s9, 2 h
[21] = Metabolic stability in Cynomolgus monkey liver S9 fraction assessed as half life at 3 uM measured after 2 hrs in presence of NADPH by UPLC-MS/MS analysis; format: ADME, subcellular, Macaca fascicularis; details: s9, 2 h
[22] = Metabolic stability in CD-1 mouse intestinal S9 fraction assessed as half life measured at 3 uM after 2 hrs in absence of NADPH by UPLC-MS/MS analysis; format: ADME, subcellular, Intestine; details: s9, 2 h
[23] = Metabolic stability in Sprague-Dawley rat liver S9 fraction assessed as half life at 3 uM measured after 2 hrs in presence of NADPH by UPLC-MS/MS; format: ADME, subcellular; details: s9, 2 h
[24] = Drug metabolism in human hepatocytes assessed as (R)-2-hydroxy-3-propionamido-3,4-dihydro-2H-benzo[e][1,2]oxaborinine-8-carboxylic acid formation at 2 to 20 uM incubated for 240 mins by UPLC-HR-MS/MS analysis; format: ADME, cell-based, Hepatocyte; details: 4 h, dose 2-20 µM
[25] = Metabolic stability in Cynomolgus monkey intestinal S9 fraction assessed as half life at 3 uM measured after 2 hrs in presence of NADPH by UPLC-MS/MS analysis; format: ADME, subcellular, Macaca fascicularis, Intestine; details: s9, 2 h
[26] = Metabolic stability in CD-1 mouse plasma assessed as half life at 3 uM measured after 2 hrs by UPLC-MS/MS analysis; format: ADME, cell-free
[27] = Metabolic stability in Beagle dog plasma assessed as half life at 3 uM measured after 2 hrs by UPLC-MS/MS analysis; format: ADME, cell-free, Canis lupus familiaris
[28] = Metabolic stability in Beagle dog intestinal S9 fraction assessed as half life at 3 uM measured after 2 hrs in presence of NADPH by UPLC-MS/MS analysis; format: ADME, subcellular, Canis lupus familiaris, Intestine; details: s9, 2 h
[29] = Metabolic stability in Beagle dog liver S9 fraction assessed as half life at 3 uM measured after 2 hrs in absence of NADPH by UPLC-MS/MS analysis; format: ADME, subcellular, Canis lupus familiaris; details: s9, 2 h
[30] = Metabolic stability in Cynomolgus monkey plasma assessed as half life at 3 uM measured after 2 hrs by UPLC-MS/MS analysis; format: ADME, cell-free, Macaca fascicularis
[31] = Metabolic stability in human liver S9 fraction assessed as half life at 3 uM measured after 2 hrs in presence of NADPH by UPLC-MS/MS analysis; format: ADME, subcellular; details: s9, 2 h
[32] = Drug metabolism in rat hepatocytes assessed as (R)-2-hydroxy-3-propionamido-3,4-dihydro-2H-benzo[e][1,2]oxaborinine-8-carboxylic acid formation at 2 to 20 uM incubated for 240 mins by UPLC-HR-MS/MS analysis; format: ADME, cell-based, Hepatocyte; details: 4 h, dose 2-20 µM

CCC(=O)N[C@H]1Cc2cccc(C(=O)OCOC(=O)C(CC)CC)c2OB1O [LEDABORBACTAM ETZADROXIL]
t1/2 [1]: 10.1 min
Papp [2]: 9.22 10^-6 cm/s
Drug metabolism [3]: Metabolite_Detected
t1/2 [4]: 10.7 min
t1/2 [5]: 1.6 min
Ratio [6]: 3.2
t1/2 [7]: 2.8 min
t1/2 [8]: 0.5 min
t1/2 [9]: 0.9 min
t1/2 [10]: 3.3 min
t1/2 [11]: 2.9 min
t1/2 [12]: 119 min
t1/2 [13]: 4 min
t1/2 [14]: 1.3 min
Drug metabolism [15]: Metabolite_Detected
Drug metabolism [16]: Metabolite_Detected
t1/2 [17]: 1.2 min
Drug metabolism [18]: Metabolite_Detected
Papp [19]: 29.4 10^-6 cm/s
t1/2 [20]: 3.9 min
t1/2 [21]: 0.8 min
t1/2 [22]: 1.1 min
t1/2 [23]: 2.3 min
Drug metabolism [24]: Metabolite_Detected
t1/2 [25]: 11.2 min
t1/2 [26]: 4.6 min
t1/2 [27]: 43.9 min
t1/2 [28]: 49 min
t1/2 [29]: 0.7 min
t1/2 [30]: 22 min
t1/2 [31]: 1 min
Drug metabolism [32]: Metabolite_Detected
